# Measurements: PubChem BioAssay AID2060899 (Molecular Pharmacology Branch, DTP, NCI, 2025)
# Tested on: 565726-208-R1-J5-PDC complex spheroids, growth inhibition
# Experiment: Anticancer human tumor 565726-208-R1-J5-PDC patient-derived pancreatic adenocarcinoma cell line growth inhibition [RAS]
# Conditions: for IC50: curve of first compound; for viability, T/C: stronger effect = lower value
# Outline: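 Tumour cells grown as complex spheroids with HUVEC endothelial cells and mesenchymal stem cells, treated with RAS pathway inhibitor combinations. Each agent spans half-log steps from near clinical Cmax, or 10 microM where Cmax is unknown.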
# 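Note: spheroids exposed to compounds for seven days before readout.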
# 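Throughout, for viability, T/C: 100% = DMSO vehicle control viability.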
smiles,measurement,setting,value
CCc1c2c(nc3ccc(O)cc13)-c1cc3c(c(=O)n1C2)COC(=O)[C@]3(O)CC + CCn1c(-c2cc(N3CCN(C)CC3)cnc2C(C)OC)c2c3cc(ccc31)-c1csc(n1)CC(NC(=O)C1CC1C)C(=O)N1CCCC(N1)C(=O)OCC(C)(C)C2,IC50,second compound 0.000949 µM,1360 pM
same,IC50,second compound 0.003 µM,< 949 pM
same,IC50,second compound 0.00949 µM,< 949 pM
same,IC50,second compound 0.03 µM,< 949 pM
same,IC50,second compound 0.0949 µM,< 949 pM
same,IC50,second compound 0.3 µM,< 949 pM
same,"viability, T/C","second compound 0.000949 µM, first compound 0.000949 µM",58%
same,"viability, T/C","second compound 0.000949 µM, first compound 0.003 µM",32.1%
same,"viability, T/C","second compound 0.000949 µM, first compound 0.00949 µM",21.2%
same,"viability, T/C","second compound 0.000949 µM, first compound 0.03 µM",16.2%
same,"viability, T/C","second compound 0.000949 µM, first compound 0.0949 µM",9.45%
same,"viability, T/C","second compound 0.000949 µM, first compound 0.3 µM",5.7%
same,"viability, T/C","second compound 0.003 µM, first compound 0.000949 µM",47.9%
same,"viability, T/C","second compound 0.003 µM, first compound 0.003 µM",32.1%
same,"viability, T/C","second compound 0.003 µM, first compound 0.00949 µM",25.3%
same,"viability, T/C","second compound 0.003 µM, first compound 0.03 µM",17.7%
same,"viability, T/C","second compound 0.003 µM, first compound 0.0949 µM",12.1%
same,"viability, T/C","second compound 0.003 µM, first compound 0.3 µM",6.82%
same,"viability, T/C","second compound 0.00949 µM, first compound 0.000949 µM",36.1%
same,"viability, T/C","second compound 0.00949 µM, first compound 0.003 µM",30%
same,"viability, T/C","second compound 0.00949 µM, first compound 0.00949 µM",21.6%
same,"viability, T/C","second compound 0.00949 µM, first compound 0.03 µM",16%
same,"viability, T/C","second compound 0.00949 µM, first compound 0.0949 µM",12.1%
same,"viability, T/C","second compound 0.00949 µM, first compound 0.3 µM",6.89%
same,"viability, T/C","second compound 0.03 µM, first compound 0.000949 µM",27.9%
same,"viability, T/C","second compound 0.03 µM, first compound 0.003 µM",24.1%
same,"viability, T/C","second compound 0.03 µM, first compound 0.00949 µM",20.7%
same,"viability, T/C","second compound 0.03 µM, first compound 0.03 µM",15.9%
same,"viability, T/C","second compound 0.03 µM, first compound 0.0949 µM",11.9%
same,"viability, T/C","second compound 0.03 µM, first compound 0.3 µM",6.36%
same,"viability, T/C","second compound 0.0949 µM, first compound 0.000949 µM",22.6%
same,"viability, T/C","second compound 0.0949 µM, first compound 0.003 µM",23.4%
same,"viability, T/C","second compound 0.0949 µM, first compound 0.00949 µM",18.6%
same,"viability, T/C","second compound 0.0949 µM, first compound 0.03 µM",13.6%
same,"viability, T/C","second compound 0.0949 µM, first compound 0.0949 µM",10.4%
same,"viability, T/C","second compound 0.0949 µM, first compound 0.3 µM",6.38%
same,"viability, T/C","second compound 0.3 µM, first compound 0.000949 µM",21.4%
same,"viability, T/C","second compound 0.3 µM, first compound 0.003 µM",20.8%
same,"viability, T/C","second compound 0.3 µM, first compound 0.00949 µM",15.6%
same,"viability, T/C","second compound 0.3 µM, first compound 0.03 µM",14.6%
same,"viability, T/C","second compound 0.3 µM, first compound 0.0949 µM",10.7%
same,"viability, T/C","second compound 0.3 µM, first compound 0.3 µM",5.7%
